{
  "source": "patent US4221805A",
  "about": "“Method of inducing platelet antiaggregation activity” (priority 1978, dated 1980)",
  "key": {"[1]": {"experiment": "Acute toxicity in mice, oral administration (LD50)", "type": "in vivo", "conditions": "mouse, in vivo", "method": "(§1) A total of 240 albino mice, 120 male and 120 female, of the Swiss strain and having an average weight of about 20 grams were used. The animals were divided into groups of 10 animals each, and kept caged for some days in an environment at a constant temperature (21°±1° C.) and humidity (60±5%). They were then fasted for 24 hours before the experiment, but were given free access to water.\n(§2) The substance indicated by MRAP2 was administered, in a single administration, either orally or endoperitoneally. The LD50 was evaluated for each of the administration methods, using the method of Litchfield and Wilcoxon, J.Pharmacology, 96, 99, […], based on the mortality recorded for each group of mice over the seven days following administration.\n(§3) Six groups of 20 animals, 10 male and 10 female, which had been given MRAP2 dissolved in tap water were used, the method utilised being gastric catheterisation."}, "[2]": {"test_system": "mice", "experiment": "Acute toxicity in mice, oral administration (LD50)", "type": "in vivo", "conditions": "20 animals per dose", "method": "as §1, §2, §3"}, "[3]": {"test_system": "cardiovascular system of cats", "experiment": "Effect on the cardiovascular system of cats", "type": "in vivo", "conditions": "intravenous 5 mg/kg", "method": "Three cats weighing 2.4-2.6 kg were used for this test. The MRAP2 was administered intravenously in a dose of 5 mg/kg, carried in a sterile physiological solution. The animals, under combined anaesthesia with ethylurethane and diallylbarbituric acid, were subjected to measurements, by means of the Battaglia-Rangoni polygraph, of the arterial pressure, the cardiac frequency, the nictitation and the electrocardiac activity, before and up to two hours after the administration of the drug."}, "[4]": {"test_system": "stomach (gastric lesion)", "experiment": "Ulcerogenic activity in rats after a single administration", "type": "in vivo, male albino rats, Wistar strain", "conditions": "rats; for Average degree of lesion + E.E.: scale 0-7, controls 0.65 ± 0.1", "method": "The ulcerogenic activity of MRAP2 was tested both after a single administration of the drug, and after prolonged administration.\nIn these tests, a total of 70 male albino rats of Wistar strain were used, having a weight of 200±20 grams.\nThe MRAP2 was administered diluted in tap water.\n40 rats, fasted for 18 hours before the experiment, were divided into four batches of ten animals and treated orally as follows:\n3rd group: MRAP2 (50 mg/kg)\n4th group: MRAP2 (125 mg/kg).\nThe animals were killed after six hours. The stomach was withdrawn and the gastric lesion index was evaluated in terms of an arbitrary scale of values lying between 0. and 7 based on previous models proposed by other authors.\nFurthermore, the treatment was randomised in order to eliminate any possible polarisation of the data.\nThe points given for gastric ulcerative lesions were as follows:\n(1) hyperaemia or slight capillary obstruction; or slight loss of the epithelium; or some petechiae even with pale mucosa without hyperaemia;\n(2) diffuse capillary obstructions or numerous petechiae; or diffuse loss of the epithelium; of a few surface lesions;\n(3) strong submucosa haemorrhage; or many petechiae and small surface lesions; or much anaemic mucosa (yellowish colour); or up to three small ulcers;\n(4) general pattern as in the previous numbers, plus up to ten small ulcers; or long erosions; or up to three medium sized ulcers;\n(5) pattern as in number 4, with up to 15 small ulcers; or up to 6 large ulcers;\n(6) pattern as previously, with up to ten large ulcers, plus small ulcers;\n(7) pattern as previously, plus up to ten large ulcers and small ulcers; cases of perforated ulcers."}, "[5]": {"test_system": "stomach (gastric lesion)", "experiment": "Ulcerogenic activity in rats after prolonged administration", "type": "in vivo, male albino rats, Wistar strain", "method": "The ulcerogenic activity of MRAP2 was tested both after a single administration of the drug, and after prolonged administration. In these tests, a total of 70 male albino rats of Wistar strain were used, having a weight of 200±20 grams. The MRAP2 was administered diluted in tap water. The points given for gastric ulcerative lesions were as follows: (0) no lesion; (1) hyperaemia or slight capillary obstruction; or slight loss of the epithelium; or some petechiae even with pale mucosa without hyperaemia; (2) diffuse capillary obstructions or numerous petechiae; or diffuse loss of the epithelium; of a few surface lesions; (3) strong submucosa haemorrhage; or many petechiae and small surface lesions; or much anaemic mucosa (yellowish colour); or up to three small ulcers; (4) general pattern as in the previous numbers, plus up to ten small ulcers; or long erosions; or up to three medium sized ulcers; (5) pattern as in number 4, with up to 15 small ulcers; or up to 6 large ulcers; (6) pattern as previously, with up to ten large ulcers, plus small ulcers; (7) pattern as previously, plus up to ten large ulcers and small ulcers; cases of perforated ulcers. 30 Rats were divided into three batches of ten animals each, and subjected daily over a period of six days to the following oral treatment: 1st group: controls 2nd group: MRAP2 (50 mg/kg) 3rd group: MRAP2 (125 mg/kg) Six hours after the last treatment, the animals were killed and the lesion index was evaluated following the techniques and methods previously described."}},
  "data": [
    {"smiles": "Cl.Clc1ccccc1CN1CCCC1", "note": "[MRAP2, N-(2-chlorobenzyl)-pyrrolidine hydrochloride]", "values": [
      {"measurement": "mortality at 168 h", "setting": "[1]; 300 mg/kg", "value": 0, "unit": "%"},
      {"measurement": "mortality at 168 h", "setting": "[1]; 400 mg/kg", "value": 20, "unit": "%"},
      {"measurement": "mortality at 168 h", "setting": "[1]; 500 mg/kg", "value": 45, "unit": "%"},
      {"measurement": "mortality at 168 h", "setting": "[1]; 600 mg/kg", "value": 60, "unit": "%"},
      {"measurement": "mortality at 168 h", "setting": "[1]; 800 mg/kg", "value": 100, "unit": "%"},
      {"measurement": "mortality at 168 h", "setting": "[1]; 1000 mg/kg", "value": 100, "unit": "%"},
      {"measurement": "LD50 at 168 h", "setting": "[1]; single administration, 7 days, 95% limits 515-561", "value": 536, "unit": "mg/kg"},
      {"measurement": "No. of animals dead", "setting": "[2]; 300 mg/kg", "value": 0},
      {"measurement": "No. of animals dead", "setting": "[2]; 400 mg/kg", "value": 4},
      {"measurement": "No. of animals dead", "setting": "[2]; 500 mg/kg", "value": 9},
      {"measurement": "No. of animals dead", "setting": "[2]; 600 mg/kg", "value": 12},
      {"measurement": "No. of animals dead", "setting": "[2]; 800 mg/kg", "value": 20},
      {"measurement": "No. of animals dead", "setting": "[2]; 1000 mg/kg", "value": 20},
      {"measurement": "hypertensive effect", "setting": "[3]; in the four minutes following introduction of the drug", "value": "slight hypertensive effect"},
      {"measurement": "undesirable effects on the cardiovascular system", "setting": "[3]; up to two hours", "value": "does not give rise to any undesirable effects on the cardiovascular system"},
      {"measurement": "Average degree of lesion + E.E.", "setting": "[4]; single oral 50 mg/kg", "value": "0.80 ± 0.1"},
      {"measurement": "Average degree of lesion + E.E.", "setting": "[4]; single oral 125 mg/kg, P <0.05 with regard to controls", "value": "1.15 ± 0.2"},
      {"measurement": "incidence of ulcerative lesions (in words)", "setting": "[4]; single oral administration, relative to control animals", "value": "almost identical or slightly greater than that of the control animals"},
      {"measurement": "Average degree of lesion ± E.E.", "setting": "[5]; oral 50 mg/kg daily for six days, scale 0-7, controls 0.57 ± 0.1", "value": "0.86 ± 0.2"},
      {"measurement": "Average degree of lesion ± E.E.", "setting": "[5]; oral 125 mg/kg daily for six days, scale 0-7, controls 0.57 ± 0.1, P <0.05 with regard to controls", "value": "1.07 ± 0.2"},
      {"measurement": "ulcerogenic activity (in words)", "setting": "[5]; oral daily for six days", "value": "significant only at a dose of 125 mg/kg, but even then only slight"}
    ]}
  ]
}
